Series [1] has as its system MCF7 (breast cancer cell line). Briefly: Growth inhibition by MTT cytotoxicity assay, in vitro anticancer activity. Format: cell-based. Here is the method: Compounds were dissolved in DMSO (Sigma) to prepare 50 mM concentrations stock solutions. All the further dilutions were also made in DMSO. During the treatment, the final concentration of DMSO was maintained <[…].
Breast cancer cell line MCF7, maintained at NCCS, a national resource for providing cell lines, was grown in DMEM (GIBCO), MBA-MB-231 in RPMI (GIBCO) with 10% FBS, 100 U/mL penicillin and 100 μg/mL streptomycin and MCF10A in DMEM/F12 (Gibco) containing, horse Serum (10% final), EGF (20 ng/ml), Hydrocortisone ([…]), Cholera Toxin (100 ng/ml), Insulin (10 μg/ml) and Penicillin/Streptomycin mix (1 ml/100 ml) at 37° C. in a humid, 5% CO2 regulated incubator.
The cytotoxic effect of the compounds was determined using MTT (3-(4, 5 dimethylthiazol-2-yl)-2-5 diphenyltetrazolium bromide) assay. Cells were seeded (4×10^3 per well) in 96 well plates. After 24 hours of seeding, cells were exposed with varying concentrations ([…]) of respective compounds for 48 hours in triplicates. Then, MTT solution (20 μL of 5 mg/mL stock for each well of 96 well plate) was added and further incubated for 3.5 hours in humid 5% CO2 incubator. Media containing MTT solution was then replaced by MTT solvent (iso-propanol, HCl and Triton X-100), incubated for 15 min at room temperature with gentle shaking for complete dissolution of Formazan. Absorbance was measured at 570 nm using a Thermo Scientific Multiskan GO Elisa plate reader and IC 50 was calculated by routine methods. All experiments were carried out at least in triplicate, and the percentage of viable cells was calculated as the mean with respect to the controls.
(In general: Tetrazolium assays rely on reduction of a dye to a coloured formazan, in cell work by metabolically active cells.)

Where [2] appears, read: Homo sapiens, MCF7 breast cancer cell line, MTT, 48 hours exposure, Table 1, read-out: IC50.
Setting [3] is: MCF7 breast cancer cell line, MTT, 48 hours exposure, table of Example 4, read-out: IC50.

Where two headings read alike, the source gives them in different places. Bounds are passed on as bounds.

Turning to `C=C(C(=O)O)[C@@H]1CC[C@@H](C)[C@@H]2CCC(C)=C[C@@H]21` [KTK-AA- Artimisinic acid, Artemisinic acid], the IC50 in series [1] (setting [2]) and in series [1] (setting [3]) was greater than 100 µM each time.
Compound `C=C(C(=O)OCc1cn([C@@H]2O[C@@H](C)[C@H](OC(C)=O)[C@@H](OC(C)=O)[C@H]2OC(C)=O)nn1)[C@@H]1CC[C@@H](C)[C@@H]2CCC(C)=C[C@@H]21` [KTK-AA-7, (2R,3R,4R,5S,6S)-2-(4-(((2-((1R,4R,4aS,8aR)-4,7-Dimethyl-1,2,3,4,4a,5,6,8a-octahydronaphthalen-1-yl)acryloyl)oxy)methyl)-1H-1,2,3-triazol-1-yl)-6-methyltetrahydro-2H-pyran-3,4,5-triyl triacetate] showed a melting point of 89 to 92 °C. The IC50 in series [1] (Homo sapiens, MCF7, MCF-7 breast cancer cell line, read-out: IC50 value, anticancer activity against MCF-7) stood at 42 µM. Further, the IC50 in series [1] (setting [2]) came to 42 ± 2 µM. Moreover, the “IC50 value less when compared with artimisinic acid” value in series [1] (MCF7, reduction of IC50 relative to artimisinic acid) was “more than 50%”.
As for `C=C(C(=O)OCc1cn([C@@H]2O[C@H](COC(C)=O)[C@H](OC(C)=O)[C@H](OC(C)=O)[C@H]2OC(C)=O)nn1)[C@@H]1CC[C@@H](C)[C@@H]2CCC(C)=C[C@@H]21` [KTK-AA-2, (2R,3S,4S,5R,6R)-2-(acetoxymethyl)-6-(4-(((2-((1R,4R,4aS,8aR)-4,7-dimethyl-1,2,3,4,4a,5,6,8a-octahydronaphthalen-1-yl)acryloyl)oxy)methyl)-1H-1,2,3-triazol-1-yl)tetrahydro-2H-pyran-3,4,5-triyl triacetate], the IC50 in series [1] (setting [2]) and in series [1] (setting [3]) was greater than 100 µM each time.
Consider `C=C(C(=O)NCc1cn([C@@H]2O[C@H](COC(C)=O)[C@@H](OC(C)=O)[C@H](OC(C)=O)[C@H]2OC(C)=O)nn1)[C@@H]1CC[C@@H](C)[C@@H]2CCC(C)=C[C@@H]21` [KTK-PA-2, (2R,3R,4S,5R,6R)-2-(acetoxymethyl)-6-(4-((2-((1R,4R,4aS,8aR)-4,7-dimethyl-1,2,3,4,4a,5,6,8a-octahydronaphthalen-1-yl)acrylamido)methyl)-1H-1,2,3-triazol-1-yl)tetrahydro-2H-pyran-3,4,5-triyl triacetate], for which the IC50 in series [1] (setting [2]) and in series [1] (setting [3]) was greater than 100 µM throughout.
With `C=C(C(=O)NCc1cn([C@@H]2O[C@H](COC(=O)c3ccccc3)[C@@H](OC(=O)c3ccccc3)[C@H](OC(=O)c3ccccc3)[C@H]2OC(=O)c2ccccc2)nn1)[C@@H]1CC[C@@H](C)[C@@H]2CCC(C)=C[C@@H]21` [KTK-PA-4, (2R,3R,4S,5R,6R)-2-((benzoyloxy)methyl)-6-(4-((2-((1R,4R,4aS,8aR)-4,7-dimethyl-1,2,3,4,4a,5,6,8a-octahydronaphthalen-1-yl)acrylamido)methyl)-1H-1,2,3-triazol-1-yl)tetrahydro-2H-pyran-3,4,5-triyl tribenzoate], the IC50 in series [1] (setting [2]) and in series [1] (setting [3]) was greater than 100 µM each time.
Consider `C=C(C(=O)OCc1cn([C@@H]2O[C@H](COC(=O)c3ccccc3)[C@H](OC(=O)c3ccccc3)[C@H](OC(=O)c3ccccc3)[C@H]2OC(=O)c2ccccc2)nn1)[C@@H]1CC[C@@H](C)[C@@H]2CCC(C)=C[C@@H]21` [KTK-AA-6, (2R,3S,4S,5R,6R)-2-((benzoyloxy)methyl)-6-(4-(((2-((1R,4R,4aS,8aR)-4,7-dimethyl-1,2,3,4,4a,5,6,8a-octahydronaphthalen-1-yl)acryloyl)oxy)methyl)-1H-1,2,3-triazol-1-yl)tetrahydro-2H-pyran-3,4,5-triyl tribenzoate], for which the IC50 in series [1] (setting [2]) and in series [1] (setting [3]) was greater than 100 µM throughout.
As for `C=C(C(=O)OCc1cn([C@@H]2O[C@H](COC(C)=O)[C@@H](OC(C)=O)[C@H](OC(C)=O)[C@H]2OC(C)=O)nn1)[C@@H]1CC[C@@H](C)[C@@H]2CCC(C)=C[C@@H]21` [KTK-AA-4, (2R,3R,4S,5R,6R)-2-(acetoxymethyl)-6-(4-(((2-((1R,4R,4aS,8aR)-4,7-dimethyl-1,2,3,4,4a,5,6,8a-octahydronaphthalen-1-yl)acryloyl)oxy)methyl)-1H-1,2,3-triazol-1-yl)tetrahydro-2H-pyran-3,4,5-triyl triacetate], the IC50 in series [1] (setting [2]) and in series [1] (setting [3]) was greater than 100 µM in each case.
On to `C=C(C(=O)NCc1cn([C@@H]2O[C@H](COC(C)=O)[C@H](OC(C)=O)[C@H](OC(C)=O)[C@H]2OC(C)=O)nn1)[C@@H]1CC[C@@H](C)[C@@H]2CCC(C)=C[C@@H]21` [KTK-PA-3, (2R,3S,4S,5R,6R)-2-(acetoxymethyl)-6-(4-((2-((1R,4R,4aS,8aR)-4,7-dimethyl-1,2,3,4,4a,5,6,8a-octahydronaphthalen-1-yl)acrylamido)methyl)-1H-1,2,3-triazol-1-yl)tetrahydro-2H-pyran-3,4,5-triyl triacetate], for which the IC50 in series [1] (setting [2]) and in series [1] (setting [3]) was greater than 100 µM each time.

Broadly, the IC50 is the midpoint of a concentration-inhibition curve. Usually melting point stands for the temperature, or range, at which the solid turns liquid.
